Structures can show the parent of a compound that is named as a salt. Where two headings read alike, the source gives them in different places.
Assays:
AOC2 = AOC2 (Homo sapiens (Human), UniProt O75106); assay: AOC2 biochemical assay (Amplex Red)
Procedure: An aliquot of 5 μL of the compound dilution is added to a 96 well plate (flat bottom F, black, GREINER bio-one, #655900) in a DMSO concentration of 2%. […] Cells are cultured for 3 days in EMEM culture medium containing 10% FCS (#04-00-1A, Biological Industries). After washing twice with ice cold PBS, cells are lysed by mechanic homogenation and cleared supernatants are shock frozen in liquid nitrogen and stored at -80° C. […] An Aliquot of 45 μL is added to the compound dilution and incubated for 30 min at 37° C. The enzymatic reaction is started with the addition of 50 μL of Amplex® Red reaction mix (final assay concentration: 100 mM sodiumphosphate, 120 μM Amplex® Red reagent (#A22177 Molecular Probes), 1.5 U/mL Horseradish Peroxidase (#P8375 Sigma-Aldrich), 2 mM phenylethylamine (#[…] Sigma-Aldrich), 0.05% Pluronic F-127 (#P3000MP Sigma-Aldrich), pH 7.4, 37° C.). The turnover per time of the substrate is determined directly with a fluorescence reader (Ex 540 nm/Em 590 nm) like Envision 2104 Multilabel Reader (PERKIN ELMER) for 60 min.

human AOC3 enzyme = human AOC3 enzyme (Homo sapiens (Human), UniProt Q16853); assay: AOC3 biochemical assay (MAO-Glo)
From the text: The MAO-Glo™ Assay (commercially available from PROMEGA, #V1402) provides a sensitive method for the measurement of monoamine oxidase (MAO) activity (Valley, M. P. et al., 2006, Anal. Biochem. 359: 238-246) from a variety of tissues, biofluids or recombinant expressed or purified enzymes. As substrate a derivate of the beetle luciferin ((4S)-4,5-dihydro-2-(6-hydroxybenzothiazolyl)-4-thiazole-carboxylic acid) is used, which is oxidized at a primary amine moiety. After a spontaneous elimination and a catalyzed esterase reaction, the turnover of the luciferine by the luciferase is recorded as a signal of AOC3 activity.
An aliquot of 3 μL of the compound dilution is added to a 384 well plate (Optiplate, PS, flat bottom, white, PERKIN ELMER, #6007290) with a final DMSO concentration of 6.6%. Recombinant CHO cells, overexpressing the human (1500 cells/well), mouse (1000 cells/well) or rat (500 cells/well) AOC3 enzyme are diluted in reaction buffer and added in a volume of 15 μL to the wells. After incubation for 20 minutes at 37° C., 2 μL of MAO substrate (dissolved in DMSO at 16 mM, adjusted to assay concentration in reaction buffer to a final assay concentration of 20 μM) is added and further incubated for 60 minutes at 37° C. The turnover of the substrate is determined by the addition of 20 μL of the detection-mix which was generated by the addition of reconstitution buffer with esterase (PROMEGA, #V1402) to the luciferine detection reagent (PROMEGA, #V1402). After an incubation period of 20 minutes, the luminescent signal is measured with Envision 2104 Multilabel Reader (PERKIN ELMER).

AOC1 = AOC1 (Homo sapiens (Human), UniProt P19801); assay: AOC1 biochemical assay (Amplex Red)
Procedure: The Amplex® Red Assay (available from Thermo Fisher Scientific) provides a sensitive method for the detection of H2O2 generated during enzymatic reactions like the amine oxidation catalyzed by AOC1. The assay reagent is a colorless substrate (N-acetyl-3,7-dihydroxyphenoxazine) that reacts in a 1:1 stoichiometry with hydrogen peroxide (H2O2) to produce the fluorescent dye resorufin (7-hydroxyphenoxazin-3-one, excitation/emission maxima=570/585 nm).
An aliquot of 3 μL of the compound dilution is added to a 384 well plate (Optiplate, PS, flat bottom F, black, PERKIN ELMER, #6007270) in a DMSO concentration of 6.6%.
An AOC1 enzyme aliquot (#8297-AO-010, R&D Systems) is thawed on ice, diluted in reaction buffer and added in a volume of 7 μL to the wells to give a final assay concentration of 1 ng/well. After incubation of inhibitor and enzyme for 30 minutes at 37° C., the enzymatic reaction is started with the addition of 10 μL of Amplex® Red reaction mix (final assay concentration: 100 mM sodiumphosphate, 120 μM Amplex® Red reagent (#A22177 Molecular Probes), 1.5 U/mL Horseradish Peroxidase (#P8375 Sigma-Aldrich), 200 μM putrescine (#P7505 Sigma-Alrdich), 0.05% Pluronic F-127 (#P3000MP Sigma-Aldrich), pH 7.4, 37° C.).
After an incubation for 30 minutes at 37° C. the turnover of the substrate is determined directly (or after the addition of an excess of an amine-oxidase inhibitor) with a fluorescence reader (Ex 540 nm/Em 590 nm) like Envision 2104 Multilabel Reader (PERKIN ELMER).

human AOC3 enzyme, sequence (Q16853 whole entry): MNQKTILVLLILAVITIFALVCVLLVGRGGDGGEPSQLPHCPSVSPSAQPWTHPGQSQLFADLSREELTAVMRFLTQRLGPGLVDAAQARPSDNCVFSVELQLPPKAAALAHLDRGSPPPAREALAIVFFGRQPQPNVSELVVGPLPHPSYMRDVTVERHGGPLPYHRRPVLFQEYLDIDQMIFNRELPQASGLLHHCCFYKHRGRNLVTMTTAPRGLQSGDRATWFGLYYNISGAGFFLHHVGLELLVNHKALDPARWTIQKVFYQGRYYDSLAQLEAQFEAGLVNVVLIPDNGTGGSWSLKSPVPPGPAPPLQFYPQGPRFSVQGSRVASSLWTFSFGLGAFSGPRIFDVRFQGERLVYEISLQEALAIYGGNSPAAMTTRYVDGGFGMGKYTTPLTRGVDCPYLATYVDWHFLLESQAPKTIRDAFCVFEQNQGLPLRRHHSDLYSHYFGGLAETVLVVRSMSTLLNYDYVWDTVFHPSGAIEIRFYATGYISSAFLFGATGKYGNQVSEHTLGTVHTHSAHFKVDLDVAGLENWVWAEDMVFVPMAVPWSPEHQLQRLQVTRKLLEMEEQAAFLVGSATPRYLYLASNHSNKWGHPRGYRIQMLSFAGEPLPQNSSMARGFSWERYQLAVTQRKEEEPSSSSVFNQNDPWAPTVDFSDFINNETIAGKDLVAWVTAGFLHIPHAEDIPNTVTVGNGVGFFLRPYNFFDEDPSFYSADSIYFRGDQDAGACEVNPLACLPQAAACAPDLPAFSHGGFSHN
AOC2, sequence (O75106 whole entry): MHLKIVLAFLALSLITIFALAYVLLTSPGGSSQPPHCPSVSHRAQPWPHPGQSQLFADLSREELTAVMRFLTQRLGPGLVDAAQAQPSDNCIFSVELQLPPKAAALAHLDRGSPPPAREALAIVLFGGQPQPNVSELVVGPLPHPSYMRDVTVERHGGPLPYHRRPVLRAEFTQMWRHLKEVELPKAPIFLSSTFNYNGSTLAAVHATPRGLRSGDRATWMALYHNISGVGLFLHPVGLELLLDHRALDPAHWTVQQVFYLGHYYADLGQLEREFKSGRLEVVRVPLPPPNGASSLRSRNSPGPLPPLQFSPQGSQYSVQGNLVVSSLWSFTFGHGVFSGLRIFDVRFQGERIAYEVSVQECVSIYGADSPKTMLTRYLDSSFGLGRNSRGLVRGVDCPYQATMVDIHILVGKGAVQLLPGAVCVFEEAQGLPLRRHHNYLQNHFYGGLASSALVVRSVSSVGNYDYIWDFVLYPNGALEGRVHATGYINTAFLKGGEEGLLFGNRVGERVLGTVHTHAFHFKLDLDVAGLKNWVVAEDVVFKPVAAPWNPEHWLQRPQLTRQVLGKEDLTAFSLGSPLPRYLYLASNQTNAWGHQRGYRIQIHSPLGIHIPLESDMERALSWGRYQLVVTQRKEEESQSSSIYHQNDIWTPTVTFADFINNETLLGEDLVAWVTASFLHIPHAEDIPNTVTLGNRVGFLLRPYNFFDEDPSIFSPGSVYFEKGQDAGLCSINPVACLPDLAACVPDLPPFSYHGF
AOC1, sequence (P19801 20-751): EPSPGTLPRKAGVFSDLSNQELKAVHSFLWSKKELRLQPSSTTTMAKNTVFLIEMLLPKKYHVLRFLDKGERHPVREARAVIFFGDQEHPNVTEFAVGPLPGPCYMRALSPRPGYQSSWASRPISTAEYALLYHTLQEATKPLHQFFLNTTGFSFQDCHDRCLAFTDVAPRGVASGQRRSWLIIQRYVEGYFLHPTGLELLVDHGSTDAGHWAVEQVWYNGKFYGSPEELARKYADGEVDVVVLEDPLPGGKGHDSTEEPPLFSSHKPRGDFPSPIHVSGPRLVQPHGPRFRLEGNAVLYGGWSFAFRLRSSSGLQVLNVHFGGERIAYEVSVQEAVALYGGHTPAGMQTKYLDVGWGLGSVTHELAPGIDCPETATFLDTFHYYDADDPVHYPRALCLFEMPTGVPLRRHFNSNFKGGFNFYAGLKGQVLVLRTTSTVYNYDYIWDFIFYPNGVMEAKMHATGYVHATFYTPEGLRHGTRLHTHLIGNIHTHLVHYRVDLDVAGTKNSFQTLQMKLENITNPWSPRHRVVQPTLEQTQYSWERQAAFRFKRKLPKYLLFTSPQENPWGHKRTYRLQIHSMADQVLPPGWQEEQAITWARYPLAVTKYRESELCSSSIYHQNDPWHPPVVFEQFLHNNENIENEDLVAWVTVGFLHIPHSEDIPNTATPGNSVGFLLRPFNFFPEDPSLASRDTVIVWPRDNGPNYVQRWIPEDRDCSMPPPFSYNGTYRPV

SMILES | IC50 (AOC2; read-out: AOC2 IC50) | IC50 (human AOC3 enzyme; read-out: AOC3 IC50) | IC50 (AOC1; read-out: AOC1 IC50) | fold less active against AOC2 as compared to AOC3 (ratio IC50 AOC2/IC50 AOC3) (AOC2) | IC50 (AOC2; comparison table, read-out: IC50 AOC2) | IC50 (human AOC3 enzyme; comparison table, read-out: IC50 AOC3) | IC50 (AOC1; comparison table, unit μM, read-out: IC50 AOC1)
NC/C(=C\F)COc1ccc(S(=O)(=O)N2CC[C@H](C(N)=O)C2)cn1 [Example 49] | 50 nM | 21 nM | > 50 µM |  |  |  | 
NC/C(=C\F)COc1ccc(S(=O)(=O)N2CCC(O)(C(F)(F)F)CC2)cn1 [Example 50] | 24 nM | 20 nM | > 50 µM |  |  |  | 
COC(=O)C1CCN(S(=O)(=O)c2ccc(OC/C(=C/F)CN)nc2)CC1 [Example 51, 1-[6-((E)-2-Aminomethyl-3-fluoro-allyloxy)-pyridine-3-sulfonyl]-piperidine-4-carboxylic acid methyl ester trifluoroacetate] | 325 nM | 13 nM | 48 µM |  |  |  | 
COC(=O)[C@H]1[C@@H]2CN(S(=O)(=O)c3ccc(OC/C(=C/F)CN)nc3)C[C@@H]21 [Example 52] | 315 nM | 9 nM | 41.8 µM |  |  |  | 
COC(=O)C1(C)CCN(S(=O)(=O)c2ccc(OC/C(=C/F)CN)nc2)CC1 [Example 53] | 19 nM | 15 nM | > 50 µM |  |  |  | 
NC/C(=C\F)COc1ccc(S(=O)(=O)N2CCC(CC(=O)O)CC2)cn1 [Example 54, trifluoroacetate] | 4 nM | 308 nM | > 50 µM |  |  |  | 
NC/C(=C\F)COc1ccc(S(=O)(=O)N2C[C@@H]3[C@H](C2)[C@H]3C(=O)O)cn1 [Example 55, trans-3-[6-((E)-2-Aminomethyl-3-fluoro-allyloxy)-pyridine-3-sulfonyl]-3-aza-bicyclo[3.1.0]hexane-6-carboxylic acid trifluoroacetate] | 50 nM | 391 nM | > 50 µM |  |  |  | 
NC/C(=C\F)COc1ccc(S(=O)(=O)N2CCC(C(=O)O)CC2)cn1 [Example 56] | 34 nM | 89 nM | 34.7 µM |  |  |  | 
CC1(C(=O)O)CCN(S(=O)(=O)c2ccc(OC/C(=C/F)CN)nc2)CC1 [Example 57] | 6 nM | 2690 nM | > 50 µM |  |  |  | 
CC1(C(=O)NC2CCOCC2)CCN(S(=O)(=O)c2ccc(OC/C(=C/F)CN)nc2)CC1 [Example 58, 1-[6-((E)-2-Aminomethyl-3-fluoro-allyloxy)-pyridine-3-sulfonyl]-4-methyl-piperidine-4-carboxylic acid (tetrahydropyran-4-yl)-amide trifluoroacetate] | 363 nM | 114 nM | > 49.9 µM |  |  |  | 
NC/C(=C\F)COc1ccc(S(=O)(=O)N2CCC(CC(N)=O)CC2)cn1 [Example 60] | 92 nM | 21 nM | > 50 µM |  |  |  | 
CC1(C(N)=O)CCN(S(=O)(=O)c2ccc(OC/C(=C/F)CN)nc2)CC1 [Example 61] | 61 nM | 26 nM | > 50 µM |  |  |  | 
COC1CN(S(=O)(=O)c2ccc(OC/C(=C/F)CN)cc2)C1 [Reference compound A, reference compound] |  |  |  | 22 fold | 287 nM | 13 nM | > 50 µM

Source: patent US12178809B2, “Pyridinyl sulfonamide derivatives, pharmaceutical compositions and uses thereof” (Boehringer Ingelheim International GmbH, priority 2018, dated 2024)
